Data reported in PMC7673538 (PLoS Biology, 2020).
“And” between values parts separate entries of the source, which are not always exact repeats. Identical values can stand only once. Like-named read-outs stand apart in the source and are kept apart here.

Tests used:
[1] = system: CV-A24v; experiment: microbe, parasite or virus in culture; type: cell-based, coxsackievirus A24v; conditions: for EC50: Coxsackievirus
[2] = system: HRV-A2; experiment: microbe, parasite or virus in culture; type: cell-based, human rhinovirus
[3] = system: HRV-B14; experiment: microbe, parasite or virus in culture; type: cell-based, human rhinovirus; conditions: for EC50: Human rhinovirus sp.
[4] = system: EV-A71 (strain BrCr); type: cell-based, enterovirus A71
[5] = molecular target: T1, human DAT (Homo sapiens, UniProt Q01959); type: cell-based; conditions: for DAT, Mean (Figure 8B): Control = 100; for DAT, Mean as % (Figure 8B): Control = 100%
T1 construct: expressed in transfected cells; host or cells: HEK293 (gift of Dr. Hoener, F. Hoffmann-La Roche)
T1 sequence (Q01959 whole entry): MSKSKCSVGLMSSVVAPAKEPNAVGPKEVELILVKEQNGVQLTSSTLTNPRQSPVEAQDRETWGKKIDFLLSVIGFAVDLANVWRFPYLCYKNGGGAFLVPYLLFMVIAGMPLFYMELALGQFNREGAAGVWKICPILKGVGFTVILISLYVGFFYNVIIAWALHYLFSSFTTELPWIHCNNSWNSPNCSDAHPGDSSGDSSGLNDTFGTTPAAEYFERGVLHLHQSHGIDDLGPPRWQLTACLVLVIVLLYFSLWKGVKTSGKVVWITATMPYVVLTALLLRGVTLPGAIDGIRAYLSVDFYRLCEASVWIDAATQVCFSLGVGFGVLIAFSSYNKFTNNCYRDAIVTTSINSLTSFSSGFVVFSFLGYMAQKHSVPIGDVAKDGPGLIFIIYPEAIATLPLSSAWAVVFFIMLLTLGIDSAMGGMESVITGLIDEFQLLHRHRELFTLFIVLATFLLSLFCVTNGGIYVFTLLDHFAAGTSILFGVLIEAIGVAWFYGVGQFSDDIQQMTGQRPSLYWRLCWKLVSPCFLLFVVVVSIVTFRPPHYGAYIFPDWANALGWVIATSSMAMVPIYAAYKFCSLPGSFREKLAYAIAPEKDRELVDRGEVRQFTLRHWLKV

[6] = system: CV-A24; experiment: microbe, parasite or virus in culture; type: cell-based, coxsackievirus A24
[7] = in vitro; conditions: human
[8] = system: EV-A71; experiment: microbe, parasite or virus in culture; type: cell-based, enterovirus A71

COc1ccc(N(Cc2ccc(F)cc2)C(=O)c2cc[nH]c2)cc1 [Compound 12a, N-(4-Fluorobenzyl)-N-(4-methoxyphenyl)-1H-pyrrole-3-carboxamide]
Figure 7 dose-response raw data, CV-A24v (triplicate values) ([1]; Concentration 0.0046 µM): 10.497 and 11.7005 and 9.1598
Figure 7 dose-response raw data, CV-A24v (triplicate values) ([1]; Concentration 0.0137 µM): 16.1819 and 13.1094 and 20.3605
Figure 7 dose-response raw data, CV-A24v (triplicate values) ([1]; Concentration 0.0412 µM): 16.1819 and 13.1094 and 20.3605
Figure 7 dose-response raw data, CV-A24v (triplicate values) ([1]; Concentration 0.1235 µM): 12.9865 and 12.4949 and 21.3437
Figure 7 dose-response raw data, CV-A24v (triplicate values) ([1]; Concentration 0.3704 µM): 12.7407 and 14.2155 and 15.1987
Figure 7 dose-response raw data, CV-A24v (triplicate values) ([1]; Concentration 1.1111 µM): 10.0369 and 10.7743 and 14.83
Figure 7 dose-response raw data, CV-A24v (triplicate values) ([1]; Concentration 3.3333 µM): 9.791 and 10.5285 and 14.2155
Figure 7 dose-response raw data, CV-A24v (triplicate values) ([1]; Concentration 11.1111 µM): 82.2926 and 86.3728 and 89.8506
Figure 7 dose-response raw data, CV-A24v (triplicate values) ([1]; Concentration 33.3333 µM): 113.496 and 111 and 111.553
Figure 7 dose-response raw data, CV-A24v (triplicate values) ([1]; Concentration 100 µM): 106.3 and 102.374 and 110.232
EC50 ([1]; HeLa R19, read-out: EC50 CV-A24v strain 110386): 1.94 ± 0.07 µM
EC50 ([1]; HeLa R19, read-out: EC50 CV-A24v strain 110389): 3.77 ± 0.32 µM
EC50 ([1]; HeLa R19, read-out: EC50 CV-A24v strain 110390): 1.91 ± 0.55 µM
EC50 ([1]; HeLa R19, read-out: EC50 CV-A24v strain 110392): 2.32 ± 0.23 µM
Figure 7 dose-response raw data, HRV-A2 (triplicate values) ([2]; Concentration 0.0412 µM): 16.3585 and 16.9681 and 15.3831
Figure 7 dose-response raw data, HRV-A2 (triplicate values) ([2]; Concentration 0.3704 µM): 15.1392 and 18.0654 and 15.3831
Figure 7 dose-response raw data, HRV-A2 (triplicate values) ([2]; Concentration 1.1111 µM): 18.0654 and 16.8462 and 24.4056
Figure 7 dose-response raw data, HRV-A2 (triplicate values) ([2]; Concentration 3.3333 µM): 11.1156 and 18.0654 and 21.7232
Figure 7 dose-response raw data, HRV-A2 (triplicate values) ([2]; Concentration 11.1111 µM): 48.3946 and 57.9264 and 41.9398
Figure 7 dose-response raw data, HRV-A2 (triplicate values) ([2]; Concentration 33.3333 µM): 99.5652 and 104.147 and 100.034
Figure 7 dose-response raw data, HRV-A2 (triplicate values) ([2]; Concentration 100 µM): 89.5652 and 104.147 and 110.034
EC50 ([2]; Human rhinovirus sp., HRVA2, HeLa R19, read-out: EC50 HRV-A2): 8.51 ± 0.22 µM
Figure 7 dose-response raw data, HRV_B14 (triplicate values) ([3]; Concentration 0.0046 µM): 15.2266 and 14.5606
Figure 7 dose-response raw data, HRV_B14 (triplicate values) ([3]; Concentration 0.0412 µM): 11.568 and 20.943 and 17.6535
Figure 7 dose-response raw data, HRV_B14 (triplicate values) ([3]; Concentration 0.3704 µM): 18.8048 and 20.943 and 27.193
Figure 7 dose-response raw data, HRV_B14 (triplicate values) ([3]; Concentration 1.1111 µM): 18.8048 and 20.943 and 27.193
Figure 7 dose-response raw data, HRV_B14 (triplicate values) ([3]; Concentration 3.3333 µM): 94.6272 and 95.7785 and 85.4167
Figure 7 dose-response raw data, HRV_B14 (triplicate values) ([3]; Concentration 11.1111 µM): 94.6272 and 95.7785 and 85.4167
Figure 7 dose-response raw data, HRV_B14 (triplicate values) ([3]; Concentration 33.3333 µM): 98.3946 and 104.147 and 102.94
Figure 7 dose-response raw data, HRV_B14 (triplicate values) ([3]; Concentration 100 µM): 89.5652 and 94.1472 and 100.034
EC50 ([3]; HRVB14, HeLa R19, read-out: EC50 Exp1): 1.66 µM
EC50 ([3]; HRVB14, HeLa R19, read-out: EC50 HRV-B14): 1.45 ± 0.21 µM
virus titer, TCID50/ml (Figure 2A) ([4]; compound concentration 1 µM): 316228 TCID50/ml
virus titer, TCID50/ml (Figure 2A) ([4]; compound concentration 3 µM): 316.228 TCID50/ml
virus titer, TCID50/ml (Figure 2A) ([4]; compound concentration 10 µM): 316.228 TCID50/ml
virus titer, TCID50/ml (Figure 2A) ([4]; compound concentration 30 µM): 316.228 TCID50/ml
virus titer, TCID50/ml (Figure 2A) ([4]; compound concentration 100 µM): 316.228 TCID50/ml
virus titer, TCID50/ml (Figure 2A) ([4]; compound concentration 150 µM): 316.228 TCID50/ml
DAT, Mean (Figure 8B) ([5]; 1µM): 80.4016
DAT, Mean as % (Figure 8B) ([5]; 1µM): 80%
DAT, Mean (Figure 8B) ([5]; 100µM): 86.9569
DAT, Mean as % (Figure 8B) ([5]; 100µM): 87%
inhibition of DAT function (in words) ([5]; HEK293 cells expressing human DAT, 1 μM or 100 μM): neither 12a, 19b, 19d, nor the combined compound 12b inhibited
EC50 ([6]; Enterovirus C, CVA24, HeLa R19, read-out: EC50 Average): 3.46 µM
EC50 ([6]; Enterovirus C, CVA24, HeLa R19, read-out: EC50 CV-A24): 3.51 ± 0.22 µM
EC50 ([6]; Enterovirus C, CVA24, HeLa R19, read-out: EC50 CV-A24 strain Joseph): 3.45 ± 0.42 µM
EC50 ([6]; Enterovirus C, CVA24, HeLa R19, read-out: EC50 Exp1): 3.29 µM
EC50 ([6]; Enterovirus C, CVA24, HeLa R19, read-out: EC50 Exp2): 3.73 µM
EC50 ([6]; read-out: EC50 Exp1): 3.04 µM
EC50 ([6]; read-out: EC50 Exp2): 3.87 µM
CC50 ([7]; CC50 Average): > 30 µM
CC50 ([7]; CC50 HelaR19 Average): > 100 µM
CC50 ([7]; Exp 1 CC50): > 30 µM
CC50 ([7]; Exp 1 CC50 HelaR19): > 100 µM
CC50 ([7]; Exp2 CC50): > 30 µM
CC50 ([7]; Exp 2 CC50 HelaR19): > 100 µM
Figure 7 dose-response raw data, EV-A71 (triplicate values) ([8]; Concentration 0.0046 µM): 12.3336 and 15.0352 and 19.2639
Figure 7 dose-response raw data, EV-A71 (triplicate values) ([8]; Concentration 0.0137 µM): 12.3336 and 12.2161 and 11.2764
Figure 7 dose-response raw data, EV-A71 (triplicate values) ([8]; Concentration 0.0412 µM): 12.0987 and 12.2161 and 13.2733
Figure 7 dose-response raw data, EV-A71 (triplicate values) ([8]; Concentration 0.1235 µM): 11.9812 and 14.0955 and 13.6257
Figure 7 dose-response raw data, EV-A71 (triplicate values) ([8]; Concentration 0.3704 µM): 12.5685 and 16.7972 and 13.6257
Figure 7 dose-response raw data, EV-A71 (triplicate values) ([8]; Concentration 1.1111 µM): 12.3336 and 15.0352 and 19.2639
Figure 7 dose-response raw data, EV-A71 (triplicate values) ([8]; Concentration 3.3333 µM): 12.3336 and 15.0352 and 19.2639
Figure 7 dose-response raw data, EV-A71 (triplicate values) ([8]; Concentration 11.1111 µM): 119.819 and 116.746 and 110.126
Figure 7 dose-response raw data, EV-A71 (triplicate values) ([8]; Concentration 33.3333 µM): 119.701 and 118.637 and 111.781
Figure 7 dose-response raw data, EV-A71 (triplicate values) ([8]; Concentration 100 µM): 110.819 and 116.746 and 120.126
